# Results: patent publication US20060129225A1, “Device for the delivery of a cardioprotective agent to ischemic reperfused myocardium” (priority 2004, published 2006)
# Experiments:
# [1] = test system: human coronary artery smooth muscle cells; assay: Anti-proliferative activity in synchronized cultured human coronary artery smooth muscle cells stimulated with two percent fetal bovine serum; assay type: cell-based
# Source text: (§1) The multiple curves represent various concentrations of topotecan ranging from zero to three hundred nanomolar concentrations.
# (§2) The multiple curves represent various concentrations of etoposide ranging from zero to eight hundred nanomolar concentrations.
# The multiple curves represent various concentrations of Panzem® ranging from zero to 100 micromolar concentrations.
# [2] = test system: human coronary artery smooth muscle cell survival; assay: MTS cytotoxicity assay; assay type: cell-based; conditions: concentrations up to 30,000.00 nanomolar (tested from 6.6 nanomolar)
# Source text: Typically, a control is utilized to determine baseline toxicity.
# [3] = test system: human coronary artery smooth muscle cells; assay: Anti-proliferative activity in non-synchronized cultured human coronary artery smooth muscle cells stimulated with two percent fetal bovine serum; assay type: cell-based
# Source text: The multiple curves represent various concentrations of mycophenolic acid ranging from zero to one thousand nanomolar concentrations.
# FIG. 58 illustrates, in graphical format, the anti-proliferative activity of cladribine in non-synchronized cultured human coronary artery smooth muscle cells stimulated with two percent fetal bovine serum.
# The multiple curves represent various concentrations of cladribine ranging from zero to nine hundred nanomolar concentrations.
# [4] = test system: human smooth muscle cells; assay: PDGF AB-stimulated proliferation of human smooth muscle cells (cell count, day six); assay type: cell-based; conditions: from the IC50 values
# Description: To assess the ability of cladribine to prevent cell proliferation, human smooth muscle or endothelial cells (Clonetics, Walkersville, Md.) were seeded at a density of 2000 cells/cm^2 (approximately 3600 cells/well) into each well of 12-well plates and cultured with 1.5 ml of growth medium containing five percent fetal calf serum (FCS). After twenty-four hours, the growth medium was changed and fresh medium containing 10 ng/ml platelet-derived growth factor AB (PDGF AB; LIFE Technologies), as well as various concentrations of cladribine (0.001-10,000 nM) were added with triplicate wells. Medium was replaced with fresh cladribine-containing medium after three days. On day six, cells were detached by trypsinization to yield a cell suspension, lightly centrifuged to pellet and then counted manually using a Neubauer hemocytometer system. Cell viability was assessed by trypan blue exclusion.
# [5] = In vivo release kinetics from polymeric stent coatings in porcine pharmacokinetics studies
# cell viability = assay: Cell viability assay; assay type: cell-based
# Source text: as §1, §2
# [6] = Liquid formulations with Vitamin E TPGS, ethanol and water (HPLC assay, visual observation); assay type: physicochemical; conditions: ethanol less than two percent, water
# tumor cell lines = conditions: cited from earlier work
# [7] = test system: human coronary artery smooth muscle cell proliferation; assay: In vitro cell culture study of coronary artery smooth muscle cell proliferation; assay type: cell-based
# Source text: FIG. 51 is a graph of the inhibition of coronary artery smooth muscle cells by trichostatin A in a cell culture study.
structure (smiles),measurement,setting,value
"COc1cc2c(cc1O)CC[C@@H]1[C@@H]2CC[C@]2(C)[C@@H](O)CC[C@@H]12 [Panzem®, 2-methoxyestradiol]",effect of addition to cells treated with rapamycin on percent of inhibition,[1]; Panzem 0.813 to 100 micromolar,increases the percent of inhibition of rapamycin alone
same,inhibition of human coronary artery smooth muscle cell proliferation in vitro,"[1]; Panzem alone, synchronized cells",extremely effective inhibitor
same,human coronary artery smooth muscle cell survival (MTS assay),[2],do not reduce
"Nc1nc(Cl)nc2c1ncn2[C@H]1C[C@H](O)[C@@H](CO)O1 [cladribine, 2-chlorodeoxyadenosine]",effect of addition to cells treated with rapamycin on percent inhibition,[3]; cladribine 56.25 to 900 nanomolar,increases the percent inhibition of rapamycin alone
same,inhibition of human coronary artery smooth muscle cell proliferation,"[3]; non-synchronized cells, two percent fetal bovine serum",completely inhibits
same,potency as inhibitor of smooth muscle cells relative to endothelial cells,[4],approximately twice
same,in vivo elution compared with rapamycin,"[5]; EVA/BMA basecoat with rapamycin and cladribine, 200 μg BMA topcoat, Bx Velocity stents, Yorkshire pigs",elutes more rapidly than rapamycin
same,in vivo elution from coating over time,"[5]; PVDF/HFP (85/15) basecoat 1800 μg with thirty percent cladribine, 300 μg topcoat, Bx Velocity stents, Yorkshire pig, after the first day",levels off significantly
CC[C@@]1(O)C(=O)OCc2c1cc1n(c2=O)Cc2cc3c(CN(C)C)c(O)ccc3nc2-1 [topotecan],effect of addition to cells treated with rapamycin on percent inhibition,[1]; topotecan 18.8 to 300 nanomolar,increases the percent inhibition of rapamycin alone
same,cytotoxicity in a separate cell viability assay,cell viability; concentrations up to one micromolar,non-cytotoxic
CO[C@H]1C[C@@H]2CC[C@@H](C)[C@@](O)(O2)C(=O)C(=O)N2CCCC[C@H]2C(=O)O[C@H]([C@H](C)C[C@@H]2CC[C@@H](OC(=O)C(C)(CO)CO)[C@H](OC)C2)CC(=O)[C@H](C)/C=C(\C)[C@@H](O)[C@@H](OC)C(=O)[C@H](C)C[C@H](C)/C=C/C=C/C=C/1C [CCI-779],concentration of CCI-779 in the final solution (HPLC assay),[6],15 mg/mi
CC(/C=C/C(=O)NO)=C\[C@@H](C)C(=O)c1ccc(N(C)C)cc1 [trichostatin A],anti-proliferative IC50,tumor cell lines,low nM range
same,IC50,"[7]; human coronary artery smooth muscle cells, read-out: anti-proliferative IC50",~6 nM
same,inhibition of human coronary artery smooth muscle cell proliferation,[7]; in vitro cell culture,completely inhibit
COc1c(C)c2c(c(O)c1C/C=C(\C)CCC(=O)O)C(=O)OC2 [mycophenolic acid],effect on the anti-proliferative rapamycin dose response curve,[3]; mycophenolic acid zero to one thousand nanomolar added to cells treated with rapamycin,potentiates the anti-proliferative activity of rapamycin
same,in vivo release from coating compared with rapamycin,"[5]; EVA/BMA basecoat with 180 μg rapamycin and 180 μg mycophenolic acid, no, 100 or 200 μg BMA topcoat, porcine",elutes more completely over a shorter duration than the rapamycin
CO[C@H]1C[C@@H]2CC[C@@H](C)[C@@](O)(O2)C(=O)C(=O)N2CCCC[C@H]2C(=O)O[C@H]([C@H](C)C[C@@H]2CC[C@@H](O)[C@H](OC)C2)CC(=O)[C@H](C)/C=C(\C)[C@@H](O)[C@@H](OC)C(=O)[C@H](C)C[C@H](C)/C=C/C=C/C=C/1C [rapamycin],in vivo release rate compared with mycophenolic acid,"[5]; PVDF basecoat six hundred micrograms, PVDF topcoat two hundred micrograms, porcine",slower release rate than that of mycophenolic acid
COc1cc([C@@H]2c3cc4c(cc3[C@@H](O[C@@H]3O[C@@H]5CO[C@@H](C)O[C@H]5[C@H](O)[C@H]3O)[C@H]3COC(=O)[C@H]23)OCO4)cc(OC)c1O [etoposide],effect of addition to cells treated with rapamycin on percent inhibition,[1]; etoposide 255.7 to eight hundred nanomolar,increases the percent inhibition of rapamycin alone
same,cytotoxicity in a cell viability assay,cell viability; concentrations up to ten micromolar,non-cytotoxic
